{"source": "patent US20040235794A1", "about": "“Remedies for respiratory diseases comprising sphingosine-1-phosphate receptor controller” (priority 2001, published 2004)", "key": {"[1]": {"test_system": "anesthetized guinea pig", "assay": "Airway resistance of anesthetized guinea pig after inhalation (modified Konzett and Rossler method)", "format": "in vivo", "conditions": "for increase of airway resistance: inhalation for five minutes, 0.01 to 1 mg/mL, S1P effect at 0.1 to 1 mg/mL", "method": "(§1) The measurement of guinea pig airway resistance was carried out by the modified Konzett and Rossler method (Naunyn-Schmied. Arch. Exp. Path. Pharmak. 195, 71- ). Male Hartley guinea pigs (5 to 7 weeks-old, 300 to 500 g body weight in use) were anesthetized by pentobarbital (50 mg/kg intraabdominal dosage), and fixed at dorsal position. Then, trachea and jugular were cannulated. Airway was managed by a respirator (5 mL/stroke, 60 strokes/min) and air road was diverged with a T-tube and connected to broncho-spasm-transducer and airway resistance was measured. To guinea pigs, gallamine (1 mg/kg, i.v.) was administered and immobilized. In this connection, acetylcholine was administered (30 μg/kg, i.v.) before inhalation of a compound in order to ascertain that that there was no considerable difference in sensitivity of transient airway constriction between individual animals, and then, animals which have coordinative sensitivity were used. S1P (Alexis) was vaporized and inhaled with supersonic wave type nebulizer (Omron NE U-07) for five minutes (Jpn. J. Pharm. 50, 445-466 (1989)). Complete obstruction (total area) was calculated as area as follows; deduct the value of airway resistance at startup of S1P inhalation from the value of airway resistance that is obtained at the time of clamping the tube of tracheal cannula side, and obtained value is multiplied by 10 minutes (5 minutes for inhalation and 5 minutes for post-inhalation). […] S1P (0.01 to 1 mg/mL) was inhaled to anesthetized guinea pig and airway resistance was measured. The reference example was carried out using 10% meylon and sphingosine (Matreya, 0.01 to 1 mg/mL) with method described in example 1."}, "[2]": {"test_system": "anesthetized guinea pig", "assay": "Airway resistance of guinea pig after intravenous administration", "format": "in vivo", "conditions": "injected intravenously", "method": "Male guinea pigs (Standard Hartley, 5 to 7 weeks-old, 300 to 500 g body weight in use) were anesthetized by pentobarbital (50 mg/kg intraabdominal dosage), and fixed at dorsal position. Then, trachea and jugular were cannulated. S1P was injected intravenously, and airway resistance was measured as described in Example 1."}, "[3]": {"target": "T1, human EDG-1 (Homo sapiens, UniProt P21453)", "T1 construct": "expressed in transfected cells; host or cells: CHO inferred from 'method as in EDG-5'; the EDG-1 sentence says only 'cells'", "T1 sequence (P21453 whole entry)": "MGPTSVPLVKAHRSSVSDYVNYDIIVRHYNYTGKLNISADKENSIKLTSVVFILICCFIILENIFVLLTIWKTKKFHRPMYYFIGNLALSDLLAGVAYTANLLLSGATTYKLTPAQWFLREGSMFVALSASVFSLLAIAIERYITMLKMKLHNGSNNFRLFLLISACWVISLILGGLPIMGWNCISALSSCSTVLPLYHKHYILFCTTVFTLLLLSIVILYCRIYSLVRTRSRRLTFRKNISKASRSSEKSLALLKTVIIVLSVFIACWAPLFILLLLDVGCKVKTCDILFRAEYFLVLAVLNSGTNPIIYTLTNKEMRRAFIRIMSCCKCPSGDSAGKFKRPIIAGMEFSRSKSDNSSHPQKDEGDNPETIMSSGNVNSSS", "assay": "Antagonistic activity for EDG-1 (S1P-induced intracellular calcium, CHO cells)", "format": "cell-based", "conditions": "CHO cells expressing human EDG-1, S1P 100 nM"}, "[4]": {"target": "T2, EDG-3 (Homo sapiens, UniProt Q99500)", "T2 construct": "expressed in transfected cells; host or cells: CHO inferred from 'method as in EDG-5'", "T2 sequence (Q99500 whole entry)": "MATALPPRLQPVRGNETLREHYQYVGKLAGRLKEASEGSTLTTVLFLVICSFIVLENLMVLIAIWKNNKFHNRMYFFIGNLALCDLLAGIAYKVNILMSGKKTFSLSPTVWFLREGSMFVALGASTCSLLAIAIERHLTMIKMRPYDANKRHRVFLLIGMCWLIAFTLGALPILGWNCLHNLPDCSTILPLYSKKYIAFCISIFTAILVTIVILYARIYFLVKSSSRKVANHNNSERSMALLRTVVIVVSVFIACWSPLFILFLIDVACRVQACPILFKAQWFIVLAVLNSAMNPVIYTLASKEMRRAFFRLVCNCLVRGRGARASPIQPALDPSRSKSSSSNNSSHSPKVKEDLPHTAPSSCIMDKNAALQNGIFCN", "assay": "Antagonistic activity for EDG-3 (S1P-induced intracellular calcium, CHO cells)", "format": "cell-based", "conditions": "CHO cells expressing EDG-3, S1P 100 nM"}, "[5]": {"target": "T3, human EDG-5 (Homo sapiens, UniProt O95136)", "T3 construct": "expressed in transfected cells; host or cells: CHO cells", "T3 sequence (O95136 whole entry)": "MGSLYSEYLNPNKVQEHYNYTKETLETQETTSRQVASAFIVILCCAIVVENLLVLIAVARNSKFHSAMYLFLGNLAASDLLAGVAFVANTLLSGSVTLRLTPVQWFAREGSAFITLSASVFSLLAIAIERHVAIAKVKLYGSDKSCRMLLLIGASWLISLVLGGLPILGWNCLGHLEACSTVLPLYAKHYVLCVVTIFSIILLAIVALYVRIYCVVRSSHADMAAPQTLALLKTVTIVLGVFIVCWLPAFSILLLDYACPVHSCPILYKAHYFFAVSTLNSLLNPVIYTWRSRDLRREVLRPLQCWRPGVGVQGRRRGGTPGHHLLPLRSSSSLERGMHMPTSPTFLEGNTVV", "assay": "Antagonistic activity for EDG-5 (S1P-induced intracellular calcium, CHO cells)", "format": "cell-based", "conditions": "CHO cells expressing human EDG-5, S1P 100 nM", "method": "Chinese hamster ovary (CHO) cells which expressed excessively human EDG-5 gene were cultured using a Ham's F12 medium (GIBCO BRL) containing 10% FBS (fetal bovine serum), penicillin/streptomycin, and blasticidin (5 μg/ml). Cultured cells were incubated in a Fura2 (5 μM) -AM solution [Ham's F12 medium containing FBS (10%), HEPES buffer (20 mM, pH7.4), and probenecid (2.5 mM)] at 37° C. for 60 minutes. Then washed once with a Hank's solution (2.5 mM) containing probenecid and immersed into the same solution. A plate was set on a fluorescent drug screening system, and measured for 30 seconds with no stimulation, a solution of a compound (dimethyl sulfoxide solution of 1 nM to 10 μM at the final concentration) to be tested was added. After lapse of 5 minutes, S1P (final concentration: 100 nM) was added, the intracellular calcium ion concentration before and after the addition was measured every 3 seconds (excitation wave length: 340 nm and 380 nm; fluorescent wave length: 500 nm). […]"}, "[6]": {"test_system": "isolated trachea of guinea pig", "assay": "Constriction of isolated trachea of guinea pig (magnus tube)", "method": "The trachea of euthanized male Hartley ginea pig was removed and immersed quickly in Krebs-Henseleit solution (112 mmol/L sodium chloride, 5.9 mmol/L potassium chloride, 2.0 mmol/L calcium chloride, 1.2 mmol/L magnesium chloride, 1.2 mmol/L monobasic sodium phosphate, 25.0 mmol/L sodium hydrogen carbonate NaHCO3, 11.5 mmol/L glucose, 4° C.). A removed tissue was hooked as helical sample in magnus tube (volume: 10 mL) filled with Krebs-Henseleit solution (37±1° C., [aerated with 95% O2+5% CO2]). After stabilizing for 60 minutes in tensioned condition with 1 g, contraction was measured by recorder from force displacement transducer via distortion amplifier. The contraction of control was obtained by high concentration solution of potassium chloride (sodium chloride in Krebs-Henseleit solution was all exchanged to potassium chloride), or by stimulation with leukotriene D4 (LTD4) or histamine. After contraction by S1P, EDG-5 antagonist was added. Washing process of a specimen was repeated just in time, after hooked in magnus tube."}, "[7]": {"test_system": "anesthetized guinea pig", "assay": "Inhibition of S1P-induced increase of airway resistance of anesthetized guinea pig in vivo", "conditions": "S1P 0.1 mg/mL inhaled; compound intravenously injected after increase of airway resistance", "method": "The measurement of guinea pig airway resistance was carried out by the modified Konzett and Rossler method (Naunyn-Schmied. Arch. Exp. Path. Pharmak. 195, 71- ). Male Hartley guinea pigs (5 to 7 weeks-old, 300 to 500 g body weight in use) were anesthetized by pentobarbital (50 mg/kg intraabdominal dosage), and fixed at dorsal position. Then, trachea and jugular were cannulated. Airway was managed by a respirator (5 mL/stroke, 60 strokes/min) and air road was diverged with a T-tube and connected to broncho-spasm-transducer and airway resistance was measured. To guinea pigs, gallamine (1 mg/kg, i.v.) was administered and immobilized. S1P was vaporized and inhaled with supersonic wave type nebulizer for five minutes (Jpn. J. Pharm. 50, 445-466 (1989)). S1P (0.1 mg/mL) was inhaled to the anesthetized guinea pig, and airway resistance was measured. After a increase of strong airway resistance was recognized, compound 1 was intravenously injected."}, "[8]": {"test_system": "Normal human airway smooth muscle cells", "assay": "DNA synthesis (BrdU incorporation) of human airway smooth muscle cells induced by S1P", "format": "cell-based", "method": "Normal human airway smooth muscle cells (BMSC; BioWhittaker) were cultured using MEM-A medium (GIBCO) containing 10% FBS (fetal calf serum), gentamicin (50 μg/mL), amphotericin B (50 ng/mL), and human bFGF, human insulin for 24 hours and deoxybromouridine (BrdU) was added.\nNormal human airway smooth muscle cells (BMSC; BioWhittaker) were plated in 96 well plate using MEM-α medium containing human insulin at density of 1×10^4 cells/well. After 24 hour incubation, wash 2 times with Hanks solution, and serum-free medium (MEM-α/gentamicin (50 μg/mL), amphotericin B (50 ng/mL)) was added and incubated for 24 hours. S1P was added at the final concentration of 0.03 μM to 10 μM, deoxybromouridine (BrdU) was added at the same time, and incubated for 6 hours, and then the activity of BrdU incorporation was measured. As control, equal volume of physiological salt solution, which is vehicle of S1P, was added.\nCells were treated with BrdU, and culture supernatant was discarded. 150 μL of Cell fixation·DNA denaturation buffer was added to each well and incubated for 30 minutes. Cell fixation·DNA denaturation buffer was removed and blocking buffer (150 μL) was added. […] After 15 minutes, 25 μL of 2N sulfuric acid was added and absorbance at 450 nm was measured. […]"}, "[9]": {"test_system": "human airway smooth muscle cells", "assay": "Cell toxicity assessment using released LDH", "format": "cell-based", "conditions": "released LDH as indicator"}, "[10]": {"test_system": "anesthetized guinea pig", "assay": "Effect of pre-treatment on increase of airway resistance induced by S1P", "format": "in vivo", "conditions": "pretreatment 100 μg/mL, i.v.", "method": "as §1, with “S1P (Alexis) was vaporized and inhaled with supersonic wave type nebulizer (Omron NE U-07) for five minutes (Jpn. J. Pharm. 50, 445-466 (1989)).” left out, “The reference example was carried out using 10% meylon and sphingosine (Matreya, 0.01 to 1 mg/mL) with method described in example 1.” left out"}}, "data": [{"smiles": "CCCCCCCCCCCCC/C=C/[C@@H](O)[C@@H](N)CO", "note": "[sphingosine]", "values": [{"measurement": "increase of airway resistance", "setting": "[1]", "result": "increase of airway resistance was not observed"}]}, {"smiles": "NCCc1c[nH]cn1", "note": "[histamine]", "values": [{"measurement": "increase of airway resistance", "setting": "[1]", "result": "increase of airway resistance"}, {"measurement": "increase of airway resistance", "setting": "[2]", "result": "increase"}]}, {"smiles": "Cc1nn(C)c2nc(NNC(=O)Nc3c(Cl)cncc3Cl)cc(C(C)C)c12", "note": "[Compound 1, N-(1H-1,3-dimethyl-4-isopropylpyrazolo[3,4-b]pyridine-6-yl)amino-N′-(3,5-dichloropyridine-4-yl)urea]", "values": [{"measurement": "IC50", "setting": "[3]", "result": "> 10", "unit": "µM"}, {"measurement": "IC50", "setting": "[4]", "result": "> 10", "unit": "µM"}, {"measurement": "IC50", "setting": "[5]", "result": 0.01, "unit": "µM"}, {"measurement": "inhibition of constriction induced by S1P", "setting": "[6]; added after contraction by S1P", "result": "inhibited constriction induced by S1P"}, {"measurement": "inhibition of increase of airway resistance induced by S1P", "setting": "[7]", "result": "inhibited"}, {"measurement": "antagonism of S1P-induced BrdU incorporation", "setting": "[8]; compound 0.01 μM to 10 μM, S1P 3 μM, 6 hours", "result": "antagonized against S1P"}, {"measurement": "LDH activity in medium", "setting": "[9]", "result": "did not enhancement LDH activity in medium"}]}, {"smiles": "CC(C)(C)NCC(O)c1ccc(O)c(CO)c1", "note": "(stereo not shown) [salbutamol]", "values": [{"measurement": "inhibition of increase of airway resistance induced by S1P", "setting": "[10]", "result": "inhibited only partially"}]}, {"smiles": "CCCCCCCCCCCCC/C=C/[C@@H](O)[C@@H](N)COP(=O)(O)O", "note": "[Compound S1P, (2S, 3R, 4E)-2-amino-3-hydroxyoctadeca-4-enyl-1 phosphate]", "values": [{"measurement": "increasing effect on airway resistance compared with inhalation of histamine", "setting": "[1]; inhalation 0.01 to 1 mg/mL, converted to number of moles", "result": "at the same level"}, {"measurement": "increase of airway resistance", "setting": "[1]", "result": "strong increase of airway resistance was observed"}, {"measurement": "increase of airway resistance", "setting": "[2]", "result": "Increase of airway resistance was observed"}, {"measurement": "increase of airway resistance compared with histamine", "setting": "[2]", "result": "slight compared with that of histamine"}, {"measurement": "contraction of guinea pig trachea", "setting": "[6]; S1P 10 μmol/L", "result": "very slow contraction"}, {"measurement": "rate of contraction relative to other constricting drug (LTD4, histamine etc.)", "setting": "[6]; S1P 10 μmol/L", "result": "3 to 5", "unit": "fold slower"}, {"measurement": "time to plateau of contraction", "setting": "[6]; S1P 10 μmol/L", "result": "30 to 60", "unit": "min"}, {"measurement": "DNA synthesis of human airway smooth muscle cells", "setting": "[8]; S1P 0.03 μM to 10 μM, BrdU 6 hours", "result": "induces DNA synthesis"}]}]}
